Read-outs that look alike come from different tables or passages of the source.
Legend:
Assay type in all cases: cell-based, human
A549 cells [1] = test: MTT cytotoxicity assay, A549; details: for IC50: read-out: IC50 A549; for SI A549: selectivity index = IC50 in MRC-5 / IC50 in A549
SW480 cells = test: MTT cytotoxicity assay, SW480; details: for IC50: Homo sapiens, SW480, 72 h, read-out: IC50 SW480; for SI SW480: selectivity index = IC50 in MRC-5 / IC50 in SW480
A549 cells [2] = test: Cell cycle analysis by flow cytometry; details: 24 h; for cell population in S phase: control 18.89%; for cell population in G0/G1 phase: control 67.87%
A549 cells [3] = test: Apoptosis assay, Annexin V-FITC/PI flow cytometry; details: 24 h; for early apoptotic cells (Q3, annexin+/PI-): control 1.8%; for late apoptotic cells (Q2, annexin+/PI+): control 2.4%

SMILES | IC50 (SW480 cells) [µM] | IC50 (A549 cells [1]; Homo sapiens, A549, 72 h) [µM] | also measured
N.N.[Cl][Pt][Cl] [Cisplatin, reference compound] |  |  | IC50 (A549 cells [1]; MTT, 72 h, mean ± SD of 3–4 independent replicates): 5.77 ± 1.6 µM
CCCCNC(=O)c1ccc2nc(-c3cc(OC)c(OC)c(OC)c3)[nH]c2c1 [Compound 5a, N-Butyl-2-(3,4,5-trimethoxyphenyl)-1H-benzo[d]imidazole-6-carboxamide] | 46.1 ± 9.23 | 24.8 ± 5.21 | 
COc1cc(-c2nc3ccc(C(=O)NCC(C)C)cc3[nH]2)cc(OC)c1OC [Compound 5b, N-Isobutyl-2-(3,4,5-trimethoxyphenyl)-1H-benzo[d]imidazole-6-carboxamide] | 18.8 ± 3.25 | 0.82 ± 0.2 | 
COc1cc(-c2nc3ccc(C(=O)NCc4ccccc4)cc3[nH]2)cc(OC)c1OC [Compound 5c, N-Benzyl-2-(3,4,5-trimethoxyphenyl)-1H-benzo[d]imidazole-6-carboxamide] | 34.8 ± 5.37 | 16.3 ± 5.73 | 
COc1cc(-c2nc3ccc(C(=O)NCCc4ccccc4)cc3[nH]2)cc(OC)c1OC [Compound 5d, N-Phenethyl-2-(3,4,5-trimethoxyphenyl)-1H-benzo[d]imidazole-6-carboxamide] | 18.2 ± 2.69 | 0.66 ± 0.13 | 
COc1cc(-c2nc3ccc(C(=O)Nc4ccccc4)cc3[nH]2)cc(OC)c1OC [Compound 5e, N-Phenyl-2-(3,4,5-trimethoxyphenyl)-1H-benzo[d]imidazole-6-carboxamide] | 5.45 ± 0.67 | 0.23 ± 0.05 | SI SW480 (SW480 cells): 2.1; SI A549 (A549 cells [1]): 50.2
COc1cc(-c2nc3ccc(C(=O)Nc4ccccc4F)cc3[nH]2)cc(OC)c1OC [Compound 5f, N-(2-Fluorophenyl)-2-(3,4,5-trimethoxyphenyl)-1H-benzo[d]imidazole-6-carboxamide] | 6.38 ± 1.95 | 0.67 ± 0.15 | SI SW480 (SW480 cells): 1.7; SI A549 (A549 cells [1]): 15.8
COc1cc(-c2nc3ccc(C(=O)Nc4ccccc4Cl)cc3[nH]2)cc(OC)c1OC [Compound 5g, N-(2-Chlorophenyl)-2-(3,4,5-trimethoxyphenyl)-1H-benzo[d]imidazole-6-carboxamide] | 49.1 ± 2.84 | 17.3 ± 3.5 | 
COc1cc(-c2nc3ccc(C(=O)Nc4cccc(Cl)c4)cc3[nH]2)cc(OC)c1OC [Compound 5h, N-(3-Chlorophenyl)-2-(3,4,5-trimethoxyphenyl)-1H-benzo[d]imidazole-6-carboxamide] | 52.7 ± 2.96 | 27.5 ± 6.78 | 
COc1cc(-c2nc3ccc(C(=O)Nc4ccc([N+](=O)[O-])cc4Cl)cc3[nH]2)cc(OC)c1OC [Compound 5i, N-(2-Chloro-4-nitrophenyl)-2-(3,4,5-trimethoxyphenyl)-1H-benzo[d]imidazole-6-carboxamide] | 20.2 ± 7.21 | 5.78 ± 4.85 | 
COc1cc(-c2nc3ccc(C(=O)Nc4ccc(Br)cc4)cc3[nH]2)cc(OC)c1OC [Compound 5j, N-(4-Bromophenyl)-2-(3,4,5-trimethoxyphenyl)-1H-benzo[d]imidazole-6-carboxamide] | 15.2 ± 2.58 | 13.1 ± 1.27 | 
COc1cc(-c2nc3ccc(C(=O)Nc4cccc([N+](=O)[O-])c4)cc3[nH]2)cc(OC)c1OC [Compound 5k, N-(3-Nitrophenyl)-2-(3,4,5-trimethoxyphenyl)-1H-benzo[d]imidazole-6-carboxamide] | 16.8 ± 1.41 | 14.4 ± 3.53 | 
COc1cc(-c2nc3ccc(C(=O)Nc4ccccc4C)cc3[nH]2)cc(OC)c1OC [Compound 5l, N-(o-Tolyl)-2-(3,4,5-trimethoxyphenyl)-1H-benzo[d]imidazole-6-carboxamide] | 9.31 ± 0.21 | 0.92 ± 0.39 | 
COc1cc(-c2nc3ccc(C(=O)Nc4ccc(C)cc4)cc3[nH]2)cc(OC)c1OC [Compound 5m, N-(p-Tolyl)-2-(3,4,5-trimethoxyphenyl)-1H-benzo[d]imidazole-6-carboxamide] | 13 ± 1.2 | 0.52 ± 0.12 | SI SW480 (SW480 cells): 1.2; SI A549 (A549 cells [1]): 28.9
COc1cc(-c2nc3ccc(C(=O)Nc4ccc(C)cc4C)cc3[nH]2)cc(OC)c1OC [Compound 5n, N-(2,4-Dimethylphenyl)-2-(3,4,5-trimethoxyphenyl)-1H-benzo[d]imidazole-6-carboxamide] | 14.8 ± 1.63 | 1.38 ± 0.23 | 
COc1ccc(NC(=O)c2ccc3nc(-c4cc(OC)c(OC)c(OC)c4)[nH]c3c2)c(OC)c1 [Compound 5o, N-(2,4-Dimethoxyphenyl)-2-(3,4,5-trimethoxyphenyl)-1H-benzo[d]imidazole-6-carboxamide] | 3.68 ± 0.59 | 0.15 ± 0.01 | cell population in S phase (A549 cells [2]; A549, 0.15 μM): 43.58%; cell population in G0/G1 phase (A549 cells [2]; A549, 0.15 μM): 46.44%; cell population in G2/M phase (A549 cells [2]; A549, 0.30 μM, control 13.24%): 4.53%; cell population in S phase (A549 cells [2]; A549, 0.30 μM): 60.31%; cell population in G0/G1 phase (A549 cells [2]; A549, 0.30 μM): 35.16%; fold stronger cytotoxic activity than cisplatin (SW480 cells; SW480 cells): 4.1 fold; fold stronger cytotoxic activity than etoposide (SW480 cells; SW480 cells): 4.5 fold; SI SW480 (SW480 cells): 32.4; total apoptosis rate (Q2 + Q3) (A549 cells [3]; A549, 0.15 μM): 15.2%; early apoptotic cells (Q3, annexin+/PI-) (A549 cells [3]; A549, 0.15 μM): 9.8%; late apoptotic cells (Q2, annexin+/PI+) (A549 cells [3]; A549, 0.15 μM): 5.4%; total apoptosis rate (Q2 + Q3) (A549 cells [3]; A549, 0.30 μM): 74.3%; early apoptotic cells (Q3, annexin+/PI-) (A549 cells [3]; A549, 0.30 μM): 34.4%; late apoptotic cells (Q2, annexin+/PI+) (A549 cells [3]; A549, 0.30 μM): 39.9%; fold higher cytotoxic activity than cisplatin (A549 cells [1]; A549 cells): 38.5 fold; fold higher cytotoxic activity than doxorubicin (A549 cells [1]; A549 cells): 3.1 fold; fold higher cytotoxic activity than etoposide (A549 cells [1]; A549 cells): 62.9 fold; SI A549 (A549 cells [1]): 794.6
COc1cccc2c1C(=O)c1c(O)c3c(c(O)c1C2=O)C[C@@](O)(C(=O)CO)C[C@@H]3O[C@H]1C[C@H](N)[C@H](O)[C@H](C)O1 [Doxorubicin, reference compound] | 0.59 ± 0.07 | 0.46 ± 0.02 | SI SW480 (SW480 cells): 0.7; SI A549 (A549 cells [1]): 0.8
COc1cc([C@@H]2c3cc4c(cc3[C@@H](O[C@@H]3O[C@@H]5CO[C@@H](C)O[C@H]5[C@H](O)[C@H]3O)[C@H]3COC(=O)[C@H]23)OCO4)cc(OC)c1O [Etoposide, reference compound] | 16.6 ± 2.3 | 9.44 ± 1.98 | 
